Laboratory results as given in patent US9227970B2, “Triazolopyridine compounds” (Hoffmann-La Roche Inc., priority 2011, dated 2016).

What follows are compounds tested against human PDE10A (Homo sapiens (Human), UniProt Q9Y233) (assay: human PDE10A full length Scintillation Proximity Assay (SPA)). Conditions: 50 nM cGMP + 50 nM [3H]-cGMP, 20 minutes at room temperature, read-out: PDE10A inhibition IC50.
Format: biochemical
Description: The following test was carried out in order to determine the activity of the compounds of the present invention. […] The human PDE10A full length assay was performed in 96-well micro titer plates. […] A range of concentrations of the potential inhibitor was used to generate data for calculating the concentration of inhibitor resulting in 50% of the effect (e.g. […] Non-specific activity was tested without the enzyme. The reaction was initiated by the addition of the substrate solution (cGMP and [^3H]-cGMP) and allowed to progress for 20 minutes at room temperature. The reaction was terminated by adding 25 μl of YSi-SPA scintillation beads (GE Healthcare, cat. # RPNQ0150) in 18 mM zinc sulphate solution (stop reagent). […] Afterwards, radioactive counts were measured on a Perkin Elmer Top-Count Scintillation plate reader.

Chain of human PDE10A (Q9Y233 other isoform, or with tags, fused parts or gaps): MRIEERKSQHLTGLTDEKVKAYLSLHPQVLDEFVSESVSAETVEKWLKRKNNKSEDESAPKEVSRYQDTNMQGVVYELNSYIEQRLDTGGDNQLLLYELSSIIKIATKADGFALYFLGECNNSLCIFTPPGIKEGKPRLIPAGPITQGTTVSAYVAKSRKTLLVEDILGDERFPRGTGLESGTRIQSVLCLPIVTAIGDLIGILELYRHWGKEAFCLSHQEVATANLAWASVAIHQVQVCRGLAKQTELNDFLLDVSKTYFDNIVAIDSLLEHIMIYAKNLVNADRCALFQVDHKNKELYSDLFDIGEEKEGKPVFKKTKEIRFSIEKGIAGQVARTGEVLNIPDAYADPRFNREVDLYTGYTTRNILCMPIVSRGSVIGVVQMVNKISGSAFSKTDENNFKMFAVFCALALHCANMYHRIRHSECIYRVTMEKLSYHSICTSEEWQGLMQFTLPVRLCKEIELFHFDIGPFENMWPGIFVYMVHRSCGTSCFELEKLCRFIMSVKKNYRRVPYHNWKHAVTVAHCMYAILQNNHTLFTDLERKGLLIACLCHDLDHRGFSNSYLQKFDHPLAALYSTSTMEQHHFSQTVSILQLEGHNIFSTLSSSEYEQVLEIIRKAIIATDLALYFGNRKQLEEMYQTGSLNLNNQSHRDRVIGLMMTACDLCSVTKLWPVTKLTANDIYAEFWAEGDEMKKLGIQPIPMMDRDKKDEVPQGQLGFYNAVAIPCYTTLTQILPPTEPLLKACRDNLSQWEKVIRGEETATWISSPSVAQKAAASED

Structure (SMILES)	IC50
Cn1ncc(C(=O)N2CCCC2)c1C(=O)Nc1ccc2nc(N3CCCC3)nn2c1 [Example 34, 2-Methyl-4-(pyrrolidine-1-carbonyl)-2H-pyrazole-3-carboxylic acid (2-pyrrolidin-1-yl-[1,2,4]triazolo[1,5-a]pyridin-6-yl)-amide]	1.2 nM
CCN(CC)C(=O)c1cnn(C)c1C(=O)Nc1ccc2nc(N3CCC(OC)C3)nn2c1 (stereo not drawn) [Example 38]	29.4 nM
COC1CCN(c2nc3ccc(NC(=O)c4c(C(=O)N(C)C5CC5)cnn4C)cn3n2)C1 (stereo not drawn) [Example 41, 2-Methyl-2H-pyrazole-3,4-dicarboxylic acid 4-(cyclopropyl-methyl-amide) 3-{[2-(3-methoxy-pyrrolidin-1-yl)-[1,2,4]triazolo[1,5-a]pyridin-6-yl]-amide}]	3.5 nM
CCN(C)C(=O)c1cnn(C)c1C(=O)Nc1ccc2nc(N3CCC(OC)C3)nn2c1 (stereo not drawn) [Example 40, 2-Methyl-2H-pyrazole-3,4-dicarboxylic acid 4-(ethyl-methyl-amide) 3-{[2-(3-methoxy-pyrrolidin-1-yl)-[1,2,4]triazolo[1,5-a]pyridin-6-yl]-amide}]	17 nM
COc1ncc(C2CC2)nc1C(=O)Nc1ccc2nc(-c3ccccc3)nn2c1 [Example 25, 6-cyclopropyl-3-methoxy-N-(2-phenyl-[1,2,4]triazolo[1,5-a]pyridin-6-yl)pyrazine-2-carboxamide]	17 nM
COC1CCN(c2nc3ccc(NC(=O)c4c(C(=O)N5CCCC5)cnn4C)cn3n2)C1 (stereo not drawn) [Example 42, 2-Methyl-4-(pyrrolidine-1-carbonyl)-2H-pyrazole-3-carboxylic acid [2-(3-methoxy-pyrrolidin-1-yl)-[1,2,4]triazolo[1,5-a]pyridin-6-yl]-amide]	7.5 nM
COC1CCN(c2nc3ccc(NC(=O)c4c(C(=O)N5CCOCC5)cnn4C)cn3n2)C1 (stereo not drawn) [Example 39, 2-Methyl-4-(morpholine-4-carbonyl)-2H-pyrazole-3-carboxylic acid [2-(3-methoxy-pyrrolidin-1-yl)-[1,2,4]triazolo[1,5-a]pyridin-6-yl]-amide]	23.1 nM
CCN(C)C(=O)c1cnn(C)c1C(=O)Nc1ccc2nc(N3CCOCC3)nn2c1 [Example 16, 2-Methyl-2H-pyrazole-3,4-dicarboxylic acid 4-(ethyl-methyl-amide) 3-[(2-morpholin-4-yl-[1,2,4]triazolo[1,5-a]pyridin-6-yl)-amide]]	30.8 nM
Cn1ncc(C(=O)N2CCOCC2)c1C(=O)Nc1ccc2nc(N3CCOCC3)nn2c1 [Example 14, 2-Methyl-4-(morpholine-4-carbonyl)-2H-pyrazole-3-carboxylic acid (2-morpholin-4-yl-[1,2,4]triazolo[1,5-a]pyridin-6-yl)-amide]	63.8 nM
Cn1ncc(C(=O)N2CCOCC2)c1C(=O)Nc1ccc2nc(N3CCCC3)nn2c1 [Example 32, 2-Methyl-4-(morpholine-4-carbonyl)-2H-pyrazole-3-carboxylic acid (2-pyrrolidin-1-yl-[1,2,4]triazolo[1,5-a]pyridin-6-yl)-amide]	2.5 nM
CN(C)c1nc2ccc(NC(=O)c3c(C(=O)N(C)C4CC4)cnn3C)cn2n1 [Example 24, 2-Methyl-2H-pyrazole-3,4-dicarboxylic acid 4-(cyclopropyl-methyl-amide) 3-[(2-dimethylamino-[1,2,4]triazolo[1,5-a]pyridin-6-yl)-amide]]	5.3 nM
CN(C(=O)c1cnn(C)c1C(=O)Nc1ccc2nc(N3CCCC3)nn2c1)C1CC1 [Example 35]	1 nM
CCN(C)C(=O)c1cnn(C)c1C(=O)Nc1ccc2nc(-c3ccccc3)nn2c1 [Example 7, 2-Methyl-2H-pyrazole-3,4-dicarboxylic acid 4-(ethyl-methyl-amide) 3-[(2-phenyl-[1,2,4]triazolo[1,5-a]pyridin-6-yl)-amide]]	2.2 nM
Cn1ncc(C(=O)N2CC(F)C2)c1C(=O)Nc1ccc2nc(N3CCOCC3)nn2c1 [Example 17, 4-(3-Fluoro-azetidine-1-carbonyl)-2-methyl-2H-pyrazole-3-carboxylic acid (2-morpholin-4-yl-[1,2,4]triazolo[1,5-a]pyridin-6-yl)-amide]	26.5 nM

Next, values leading:

IC50	Structure (SMILES)
3.5 nM	CCN(CC)C(=O)c1cnn(C)c1C(=O)Nc1ccc2nc(N3CCCC3)nn2c1 [Example 37]
33.5 nM	CCN(C)C(=O)c1cnn(C)c1C(=O)Nc1ccc2nc(N(C)C)nn2c1 [Example 22, 2-Methyl-2H-pyrazole-3,4-dicarboxylic acid 3-[(2-dimethylamino-[1,2,4]triazolo[1,5-a]pyridin-6-yl)-amide] 4-(ethyl-methyl-amide)]
28.6 nM	CN(C)c1nc2ccc(NC(=O)c3c(C(=O)N4CCCC4)cnn3C)cn2n1 [Example 21, 2-Methyl-4-(pyrrolidine-1-carbonyl)-2H-pyrazole-3-carboxylic acid (2-dimethylamino-[1,2,4]triazolo[1,5-a]pyridin-6-yl)-amide]
2.3 nM	CCN(CC)c1nc2ccc(NC(=O)c3c(C(=O)N(C)C4CC4)cnn3C)cn2n1 [Example 31]
7.9 nM	Cn1ncc(C(=O)N2CCC2)c1C(=O)Nc1ccc2nc(-c3cscn3)nn2c1 [Example 4, 4-(Azetidine-1-carbonyl)-1-methyl-N-(2-(thiazol-4-yl)-[1,2,4]triazolo[1,5-a]pyridin-6-yl)-1H-pyrazole-5-carboxamide]
25 nM	CN(C)c1nc2ccc(NC(=O)c3c(C(=O)N4CC(F)C4)cnn3C)cn2n1 [Example 23, 4-(3-Fluoro-azetidine-1-carbonyl)-2-methyl-2H-pyrazole-3-carboxylic acid (2-dimethylamino-[1,2,4]triazolo[1,5-a]pyridin-6-yl)-amide]
21.8 nM	CCN(CC)c1nc2ccc(NC(=O)c3c(C(=O)N4CCOCC4)cnn3C)cn2n1 [Example 26, 2-Methyl-4-(morpholine-4-carbonyl)-2H-pyrazole-3-carboxylic acid (2-diethylamino-[1,2,4]triazolo[1,5-a]pyridin-6-yl)-amide]
3.3 nM	CCN(CC)c1nc2ccc(NC(=O)c3c(C(=O)N4CCC4)cnn3C)cn2n1 [Example 28, 2-Methyl-4-(azetitine-4-carbonyl)-2H-pyrazole-3-carboxylic acid (2-diethylamino-[1,2,4]triazolo[1,5-a]pyridin-6-yl)-amide]
9.9 nM	CCN(C)C(=O)c1cnn(C)c1C(=O)Nc1ccc2nc(N(CC)CC)nn2c1 [Example 29, 2-Methyl-2H-pyrazole-3,4-dicarboxylic acid 3-[(2-diethylamino-[1,2,4]triazolo[1,5-a]pyridin-6-yl)-amide] 4-(ethyl-methyl-amide)]
4.9 nM	COC1CCN(c2nc3ccc(NC(=O)c4c(C(=O)N5CCC5)cnn4C)cn3n2)C1 (stereo not drawn) [Example 43, 4-(Azetidine-1-carbonyl)-2-methyl-2H-pyrazole-3-carboxylic acid [2-(3-methoxy-pyrrolidin-1-yl)-[1,2,4]triazolo[1,5-a]pyridin-6-yl]-amide]
0.8 nM	Cn1ncc(C(=O)N2CCC2)c1C(=O)Nc1ccc2nc(N3CCCC3)nn2c1 [Example 33]
1.9 nM	CCN(C)C(=O)c1cnn(C)c1C(=O)Nc1ccc2nc(N3CCCC3)nn2c1 [Example 36]
19.1 nM	CCN(CC)C(=O)c1cnn(C)c1C(=O)Nc1ccc2nc(N(CC)CC)nn2c1 [Example 30, 2-Methyl-2H-pyrazole-3,4-dicarboxylic acid 4-diethylamide 3-[(2-diethylamino-1,2,4]triazolo[1,5-a]pyridin-6-yl)-amide]
